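Five concentrations, 48 hours, 96-well plates. At the TGI there is no net growth.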
Tests used:
Experiment in all cases: NCI-60 cell line screen, 48 h
[1] = test system: SF-539 CNS
[2] = test system: SK-MEL-5 melanoma
[3] = test system: KM12 colon
[4] = test system: SK-OV-3 ovarian
[5] = test system: MDA-MB-435
[6] = test system: HL-60(TB) leukemia
[7] = test system: M14 melanoma
[8] = test system: SR leukemia
[9] = test system: EKVX NSCLC
[10] = test system: UACC-62 melanoma
[11] = test system: A498 renal
[12] = test system: BT-549 breast
[13] = test system: SF-268 CNS
[14] = test system: MDA-N
[15] = test system: UACC-257 melanoma
[16] = test system: MALME-3M melanoma
[17] = test system: NCI-H23 lung
[18] = test system: OVCAR-4 ovarian
[19] = test system: LOX IMVI melanoma

Structure (SMILES)	TGI [1] [µM]	TGI [2] [µM]	TGI [3] [µM]	TGI [4] [µM]	TGI [5] [µM]	TGI [6] [µM]	TGI [7] [µM]	TGI [8] [µM]	TGI [9] [µM]	TGI [10] [µM]	TGI [11] [µM]	TGI [12] [µM]	TGI [13] [µM]	TGI [14] [µM]	TGI [15] [µM]	TGI [16] [µM]	TGI [17] [µM]	TGI [18] [µM]	TGI [19] [µM]
CC(=O)O[C@H]1C[C@H]2[C@@H]([C@H](OC(C)=O)C[C@@H]3CC4(CC[C@@]32C)OOC2(CCCCC2)OO4)[C@@H]2CC[C@H]([C@H](C)CCC(N)=O)[C@@]12C	10.7	5.24	3.3	25.5	3.27	3.81	9.67	1.88	3.23	6.31	18.1	4.86	3.47	3.71	19.9	6.82	2.83	4.21	
Cc1cc(C)c(-n2c(C)c(C)c(C#N)c2N)c(C)c1	69.8	37.2	> 100	> 100	> 100	37	> 100	38.4	87.6		97.1	> 100	> 100	> 100	60.8	87.8	> 100	> 100	40.8
COc1cc(/C=C2/CCCc3ccccc3C2=O)cc(OC)c1OC	> 64.7	13.6	> 50.1	> 68.1	> 70.6	> 100	> 67.4	> 39.2	> 92.2	> 67.4	> 75	> 78.5	> 52.3	> 43.8	> 56.1	29.5	> 87	> 100	> 77
O=C(O)c1[nH]c(=O)[nH]c(=O)c1CN1CCCCC1		> 100	> 100	> 100	> 100	> 100	> 100	> 100	> 100	> 100	> 100	> 100	> 100	> 100	> 100	> 100	> 100	> 100	> 100
COC(=O)c1c(O)ccc2c1c1cc3ccccc3c(O)c1n2Cc1ccccc1Cl	33.7	56.2	61.8	48.6	40.3	74.9	59.1	> 100	87.1	65.4	> 100	91.7	97.7	61.8	> 100	74.7	46.2	51.1	
NNC(=O)CC(=O)Nc1ccccc1Cl	> 100	> 100	> 100	> 100	> 100	> 100		> 100	> 100	> 100	> 100	> 100	> 100	> 100	> 100	> 100	> 100	> 100	> 100
CC1(C)CC(=O)c2c([nH]c(=S)c(C#N)c2-c2ccc(Br)cc2)C1	> 100	> 100		> 100	> 100	> 100	> 100	51.7	> 100	> 100	> 100	> 100	> 100	> 100	> 100	> 100	> 100	> 100	> 100
[N-]=[N+]=CC(=O)OC1CCc2ccccc21 (stereo unspecified)		> 100		> 100	> 100	> 100		> 100	> 100	> 100	> 100	> 100	> 100	> 100	> 100	> 100	> 100	> 100	> 100
CC[C@]1(Cc2ccc(OC)c(OC)c2)C=[N+]([O-])O[C@H](OC2CCCCC2c2ccccc2)[C@@H]1OC(C)=O (stereo partly specified)		> 100	> 100	> 100	> 100	40.9	> 100	91.1	> 100	> 100	> 100	> 100		> 100	> 100	> 100	> 100	> 100	> 100
Nc1c(C(=O)c2ccc(Cl)cc2)[nH]c(Nc2ccc(Cl)cc2)c1C(=S)Nc1ccccc1	18.4		31.5	19.3	20	> 100	34.1	7.41	19.5	27.1	28.9	8.02	17.8	21.5	31.8	36.1	11.9	5.14	16.6
CCCCCCCCCCCCCCCCOP(=O)(O)OP(=O)(O)OCC1OC(n2cnc3c(N)ncnc32)C(O)C1O (stereo unspecified)		> 100	> 100	> 100	> 100	> 100	> 100	78.3	> 100	> 100	> 100	36.9	> 100	> 100	> 100	> 100	> 100	> 100	> 100

Reference: PubChem BioAssay (NCI)
